The source of these data is PMC5218480 (PLoS ONE, 2017).

The test system of this assay is MV-4-11 cells. Put plainly: Gene expression microarray analysis (Affymetrix PrimeView) and GSEA. Set-up: RFU PODN (11730768_x_at) / Fold change /veh PODN (11730768_x_at) / RFU LINC00158 (11744669_a_at) / Fold change /veh LINC00158 (11744669_a_at) / RFU DUSP10 (11751237_a_at) / Fold change /veh DUSP10 (11751237_a_at) / RFU ID3 (11757404_x_at) / Fold change /veh ID3 (11757404_x_at) / RFU PLEKHG5 (11737974_s_at) / Fold change /veh PLEKHG5 (11737974_s_at) / RFU LRRC4B (11730491_at) / Fold change /veh LRRC4B (11730491_at) / RFU GIMAP4 (11747438_a_at) / Fold change /veh GIMAP4 (11747438_a_at) / RFU KRT8 (11758183_x_at) / Fold change /veh KRT8 (11758183_x_at) / RFU CNN1 (11734310_a_at) / Fold change /veh CNN1 (11734310_a_at) / RFU VPS37D (11726825_at) / Fold change /veh VPS37D (11726825_at) / RFU C10orf10 (11716522_x_at) / Fold change /veh C10orf10 (11716522_x_at) / RFU KIR2DL2 /// KIR2DL4 /// KIR2DL5A /// KIR2DL5B /// KIR2DS1 /// KIR2DS2 /// KIR2DS3 /// KIR2DS4 /// KIR3DL3 /// KIR3DL3 /// KIR3DS1 (11738374_at) / Fold change /veh KIR2DL2 /// KIR2DL4 /// KIR2DL5A /// KIR2DL5B /// KIR2DS1 /// KIR2DS2 /// KIR2DS3 /// KIR2DS4 /// KIR3DL3 /// KIR3DL3 /// KIR3DS1 (11738374_at) / RFU C1QL1 (11718748_at) / Fold change /veh C1QL1 (11718748_at) / RFU TMPRSS4 (11747572_a_at) / Fold change /veh TMPRSS4 (11747572_a_at) / RFU HAMP (11756126_x_at) / Fold change /veh HAMP (11756126_x_at) / RFU RNFT2 (11725882_a_at) / Fold change /veh RNFT2 (11725882_a_at) / RFU NR4A2 (11747474_a_at) / Fold change /veh NR4A2 (11747474_a_at) / RFU ABCC12 (11746883_a_at) / Fold change /veh ABCC12 (11746883_a_at) / RFU TMEM136 (11760407_x_at) / Fold change /veh TMEM136 (11760407_x_at) / RFU CLDN22 /// WWC2 (11732394_at) / Fold change /veh CLDN22 /// WWC2 (11732394_at) / RFU HLA-DPB1 (11760878_x_at) / Fold change /veh HLA-DPB1 (11760878_x_at) / RFU SPINT1 (11716480_a_at) / Fold change /veh SPINT1 (11716480_a_at) / RFU GAP43 (11754022_s_at) / Fold change /veh GAP43 (11754022_s_at) / RFU A4GNT (11735810_at) / Fold change /veh A4GNT (11735810_at) / RFU PRB3 (11715151_x_at) / Fold change /veh PRB3 (11715151_x_at) / RFU TUBB4B (11761932_at) / Fold change /veh TUBB4B (11761932_at) / RFU CAPN14 (11732068_a_at) / Fold change /veh CAPN14 (11732068_a_at) / RFU TMCC2 (11721928_a_at) / Fold change /veh TMCC2 (11721928_a_at) / RFU IRGQ (11745062_a_at) / Fold change /veh IRGQ (11745062_a_at) / RFU FAM174B (11720279_a_at) / Fold change /veh FAM174B (11720279_a_at) / RFU TMPRSS4 (11748680_a_at) / Fold change /veh TMPRSS4 (11748680_a_at) / RFU FAM212B (11763350_a_at) / Fold change /veh FAM212B (11763350_a_at) / RFU PLEKHG5 (11743358_a_at) / Fold change /veh PLEKHG5 (11743358_a_at) / RFU ZSCAN30 (11745921_a_at) / Fold change /veh ZSCAN30 (11745921_a_at) / RFU CMKLR1 (11741424_a_at) / Fold change /veh CMKLR1 (11741424_a_at) / RFU LOC101060620 /// MAPK8IP1 (11723275_at) / Fold change /veh LOC101060620 /// MAPK8IP1 (11723275_at) / RFU SPTSSB (11747773_x_at) / Fold change /veh SPTSSB (11747773_x_at) / RFU PRSS12 (11739890_at) / Fold change /veh PRSS12 (11739890_at) / RFU BIN1 (11741810_x_at) / Fold change /veh BIN1 (11741810_x_at) / RFU WNT11 (11732464_a_at) / Fold change /veh WNT11 (11732464_a_at) / RFU C10orf10 (11716521_a_at) / Fold change /veh C10orf10 (11716521_a_at) / RFU C5orf56 (11738089_at) / Fold change /veh C5orf56 (11738089_at) / RFU CYB561 (11721691_x_at) / Fold change /veh CYB561 (11721691_x_at) / RFU ANKRD19P (11752326_a_at) / Fold change /veh ANKRD19P (11752326_a_at) / RFU OR2T12 /// OR2T33 /// OR2T8 (11738714_s_at) / Fold change /veh OR2T12 /// OR2T33 /// OR2T8 (11738714_s_at) / RFU VCAN (11748164_a_at) / Fold change /veh VCAN (11748164_a_at) / RFU JSRP1 (11732532_at) / Fold change /veh JSRP1 (11732532_at) / RFU KRTAP10-11 (11738290_x_at) / Fold change /veh KRTAP10-11 (11738290_x_at) / RFU MYO3A (11730013_a_at) / Fold change /veh MYO3A (11730013_a_at) / RFU EBF3 (11725865_a_at) / Fold change /veh EBF3 (11725865_a_at) / RFU CAMK2N1 (11719241_x_at) / Fold change /veh CAMK2N1 (11719241_x_at) / RFU C5orf56 (11738088_a_at) / Fold change /veh C5orf56 (11738088_a_at) / RFU OLFML3 (11715873_a_at) / Fold change /veh OLFML3 (11715873_a_at) / RFU LOC100653217 /// NTM (11731650_a_at) / Fold change /veh LOC100653217 /// NTM (11731650_a_at) / RFU MAPK11 (11762145_a_at) / Fold change /veh MAPK11 (11762145_a_at) / RFU FIZ1 (11724087_x_at) / Fold change /veh FIZ1 (11724087_x_at) / RFU OASL (11726364_x_at) / Fold change /veh OASL (11726364_x_at) / RFU SOX15 (11748057_x_at) / Fold change /veh SOX15 (11748057_x_at) / RFU CD79A (11719716_a_at) / Fold change /veh CD79A (11719716_a_at) / RFU HIST1H1D (11736915_at) / Fold change /veh HIST1H1D (11736915_at) / RFU CASKIN2 (11723855_a_at) / Fold change /veh CASKIN2 (11723855_a_at) / RFU LOC730098 (11760151_x_at) / Fold change /veh LOC730098 (11760151_x_at) / RFU OR4N2 (11742367_at) / Fold change /veh OR4N2 (11742367_at) / RFU PRRT2 (11749266_a_at) / Fold change /veh PRRT2 (11749266_a_at) / RFU SNX32 (11753110_a_at) / Fold change /veh SNX32 (11753110_a_at) / RFU CDHR5 (11726645_a_at) / Fold change /veh CDHR5 (11726645_a_at) / RFU RCAN1 (11760418_a_at) / Fold change /veh RCAN1 (11760418_a_at) / RFU FAM167A (11723789_a_at) / Fold change /veh FAM167A (11723789_a_at) / RFU FAM26E (11764081_at) / Fold change /veh FAM26E (11764081_at) / RFU ISYNA1 (11749810_s_at) / Fold change /veh ISYNA1 (11749810_s_at) / RFU ACY1 (11761880_at) / Fold change /veh ACY1 (11761880_at) / RFU 11764098_at / Fold change /veh 11764098_at / RFU SAMD14 (11745864_x_at) / Fold change /veh SAMD14 (11745864_x_at) / RFU NPB (11741838_a_at) / Fold change /veh NPB (11741838_a_at) / RFU TMPRSS6 (11731388_a_at) / Fold change /veh TMPRSS6 (11731388_a_at) / RFU KRTAP10-2 (11738614_at) / Fold change /veh KRTAP10-2 (11738614_at) / RFU ARHGAP8 /// PRR5-ARHGAP8 (11727945_x_at) / Fold change /veh ARHGAP8 /// PRR5-ARHGAP8 (11727945_x_at) / RFU KRTAP5-7 /// NADSYN1 (11734609_at) / Fold change /veh KRTAP5-7 /// NADSYN1 (11734609_at) / RFU RASL12 (11751679_a_at) / Fold change /veh RASL12 (11751679_a_at) / RFU CDKN2B (11736163_a_at) / Fold change /veh CDKN2B (11736163_a_at) / RFU PRF1 (11729649_at) / Fold change /veh PRF1 (11729649_at) / RFU, ZNF638 /// ZNF638-IT1 / Fold change vs veh, ZNF638 /// ZNF638-IT1 / RFU, PANK3 / Fold change vs veh, PANK3 / RFU, SH3YL1 / Fold change vs veh, SH3YL1 / RFU, ZEB2 / Fold change vs veh, ZEB2 / RFU, NRIP1 / Fold change vs veh, NRIP1 / RFU, PTTG1IP / Fold change vs veh, PTTG1IP / RFU, CAPN2 / Fold change vs veh, CAPN2 / RFU, MED14 / Fold change vs veh, MED14 / RFU, SNORA58 / Fold change vs veh, SNORA58 / RFU, C1orf63 / Fold change vs veh, C1orf63 / RFU, LRRFIP1 / Fold change vs veh, LRRFIP1 / RFU, NDUFAF7 / Fold change vs veh, NDUFAF7 / RFU, SLC12A2 / Fold change vs veh, SLC12A2 / RFU, IBTK / Fold change vs veh, IBTK / RFU, ESF1 / Fold change vs veh, ESF1 / Fold change vs veh, TMEM50B / RFU, TAOK1 / Fold change vs veh, TAOK1 / RFU, ACBD3 / Fold change vs veh, ACBD3 / RFU, TMA16 / Fold change vs veh, TMA16 / RFU, RWDD3 / Fold change vs veh, RWDD3 / RFU, BCAT1 / Fold change vs veh, BCAT1 / RFU, EDEM3 / Fold change vs veh, EDEM3 / RFU, TMEM33 / Fold change vs veh, TMEM33 / RFU, WDR75 / Fold change vs veh, WDR75 / RFU, AHCTF1 / Fold change vs veh, AHCTF1 / RFU, TFRC / Fold change vs veh, TFRC / RFU, ZDHHC17 / Fold change vs veh, ZDHHC17 / RFU, NOM1 / Fold change vs veh, NOM1 / RFU, ARL8B / Fold change vs veh, ARL8B / RFU, ZBTB11 / Fold change vs veh, ZBTB11 / RFU, TAMM41 / Fold change vs veh, TAMM41 / RFU, KIAA1704 /// LOC100996395 / Fold change vs veh, KIAA1704 /// LOC100996395 / RFU, ING1 / Fold change vs veh, ING1 / RFU, TRMT61B / Fold change vs veh, TRMT61B / RFU, FUBP3 / Fold change vs veh, FUBP3 / RFU, TP53 / Fold change vs veh, TP53 / RFU, TNKS2 / Fold change vs veh, TNKS2 / RFU, ZFP14 / Fold change vs veh, ZFP14 / RFU, ACTR2 / Fold change vs veh, ACTR2 / RFU, PPP3R1 / Fold change vs veh, PPP3R1 / RFU, PIK3R1 / Fold change vs veh, PIK3R1 / RFU, HNRNPA1 / Fold change vs veh, HNRNPA1 / RFU, RNF170 / Fold change vs veh, RNF170 / RFU, ZNF28 / Fold change vs veh, ZNF28 / RFU, RNGTT / Fold change vs veh, RNGTT / RFU, OGT / Fold change vs veh, OGT / RFU, BRD1 / Fold change vs veh, BRD1 / RFU, MARS / Fold change vs veh, MARS / RFU, ZNF655 / Fold change vs veh, ZNF655 / RFU, FAHD1 / Fold change vs veh, FAHD1 / RFU, BDP1 / Fold change vs veh, BDP1 / RFU, LRRCC1 / Fold change vs veh, LRRCC1 / RFU, ARID1A / Fold change vs veh, ARID1A / RFU, ZNF146 / Fold change vs veh, ZNF146 / RFU, ZNF330 / Fold change vs veh, ZNF330 / RFU, GPN3 / Fold change vs veh, GPN3 / RFU, C9orf123 / Fold change vs veh, C9orf123 / RFU, N4BP2L2 / Fold change vs veh, N4BP2L2 / RFU, ARFIP1 / Fold change vs veh, ARFIP1 / RFU, FAM179B / Fold change vs veh, FAM179B / RFU, BCL10 / Fold change vs veh, BCL10 / RFU, UHRF1BP1L / Fold change vs veh, UHRF1BP1L / RFU, BET1 / Fold change vs veh, BET1 / RFU, CNOT2 / Fold change vs veh, CNOT2 / RFU, ZNF268 / Fold change vs veh, ZNF268 / Fold change vs veh, ZNF507 / RFU, DGCR2 / Fold change vs veh, DGCR2 / RFU, WDSUB1 / Fold change vs veh, WDSUB1 / Fold change vs veh, HSP90B1 /// MIR3652 / RFU, ADSS / Fold change vs veh, ADSS / RFU, GK / Fold change vs veh, GK / RFU, ZNF148 / Fold change vs veh, ZNF148 / RFU, TAF9 / Fold change vs veh, TAF9 / RFU, SLC1A5 / Fold change vs veh, SLC1A5 / RFU, SLMO2 / Fold change vs veh, SLMO2 / RFU, ABCC4 / Fold change vs veh, ABCC4 / RFU, LOC101060439 /// RAP1B / Fold change vs veh, LOC101060439 /// RAP1B / RFU, RFX7 / Fold change vs veh, RFX7 / RFU, GTPBP10 / Fold change vs veh, GTPBP10 / RFU, CNEP1R1 / Fold change vs veh, CNEP1R1 / RFU, BIVM-ERCC5 /// ERCC5 / Fold change vs veh, BIVM-ERCC5 /// ERCC5 / RFU, ILF3 / Fold change vs veh, ILF3 / RFU 11762660_at / Fold change /veh 11762660_at / RFU VCAN (11757783_s_at) / Fold change /veh VCAN (11757783_s_at) / RFU DDX43 (11728927_at) / Fold change /veh DDX43 (11728927_at) / RFU KRT8 (11758188_x_at) / Fold change /veh KRT8 (11758188_x_at) / RFU NKD1 (11759106_at) / Fold change /veh NKD1 (11759106_at) / RFU SRD5A1 (11742802_a_at) / Fold change /veh SRD5A1 (11742802_a_at) / RFU TPSAB1 /// TPSB2 (11721975_s_at) / Fold change /veh TPSAB1 /// TPSB2 (11721975_s_at) / RFU GSTM3 (11746129_a_at) / Fold change /veh GSTM3 (11746129_a_at) / RFU IL23R (11737362_x_at) / Fold change /veh IL23R (11737362_x_at) / RFU TMEM51 (11727254_a_at) / Fold change /veh TMEM51 (11727254_a_at) / RFU PIWIL2 (11732686_x_at) / Fold change /veh PIWIL2 (11732686_x_at) / RFU ORM1 (11744905_x_at) / Fold change /veh ORM1 (11744905_x_at) / RFU CCDC152 (11743942_at) / Fold change /veh CCDC152 (11743942_at) / RFU ECM1 (11717891_a_at) / Fold change /veh ECM1 (11717891_a_at) / RFU IL23R (11748794_a_at) / Fold change /veh IL23R (11748794_a_at) / RFU TNFAIP8L3 (11732012_x_at) / Fold change /veh TNFAIP8L3 (11732012_x_at) / RFU MBOAT4 (11741988_at) / Fold change /veh MBOAT4 (11741988_at) / RFU 11764193_at / Fold change /veh 11764193_at / RFU TMEM53 (11763286_at) / Fold change /veh TMEM53 (11763286_at) / RFU MAGEB2 (11727129_at) / Fold change /veh MAGEB2 (11727129_at) / RFU TMEM200A (11744735_a_at) / Fold change /veh TMEM200A (11744735_a_at) / RFU CCDC152 (11751479_a_at) / Fold change /veh CCDC152 (11751479_a_at) / RFU FAM211A (11726209_a_at) / Fold change /veh FAM211A (11726209_a_at) / RFU RGS16 (11746705_a_at) / Fold change /veh RGS16 (11746705_a_at) / RFU VCAN (11755009_s_at) / Fold change /veh VCAN (11755009_s_at) / RFU RHOB (11743442_s_at) / Fold change /veh RHOB (11743442_s_at) / RFU RGS16 (11720943_a_at) / Fold change /veh RGS16 (11720943_a_at) / RFU RGS16 (11720944_at) / Fold change /veh RGS16 (11720944_at) / RFU, VPS4B / Fold change vs veh, VPS4B / RFU, CREB1 / Fold change vs veh, CREB1 / RFU, DNAJC13 / Fold change vs veh, DNAJC13 / RFU, GNAQ / Fold change vs veh, GNAQ / RFU, CDK5R1 / Fold change vs veh, CDK5R1 / RFU, ZRANB3 / Fold change vs veh, ZRANB3 / RFU, CUL4A / Fold change vs veh, CUL4A / RFU, CCNY / Fold change vs veh, CCNY / RFU, UFL1 / Fold change vs veh, UFL1 / RFU, COG3 / Fold change vs veh, COG3 / RFU, DIAPH2 / Fold change vs veh, DIAPH2 / RFU, SKA2 / Fold change vs veh, SKA2 / RFU, AFF3 / Fold change vs veh, AFF3 / RFU, LMF1 / Fold change vs veh, LMF1 / RFU, IPO11 / Fold change vs veh, IPO11 / RFU, DFFB / Fold change vs veh, DFFB / RFU, FOXP1 / Fold change vs veh, FOXP1 / RFU, CARD8 / Fold change vs veh, CARD8 / RFU, STRN3 / Fold change vs veh, STRN3 / RFU, ADK / Fold change vs veh, ADK / RFU, RASSF2 / Fold change vs veh, RASSF2 / RFU, WIPF1 / Fold change vs veh, WIPF1 / RFU, LARP1B / Fold change vs veh, LARP1B / RFU, RASA1 / Fold change vs veh, RASA1 / RFU, RB1 / Fold change vs veh, RB1 / RFU, PPFIA1 / Fold change vs veh, PPFIA1 / RFU, MAT2A / Fold change vs veh, MAT2A / RFU, CCT5 / Fold change vs veh, CCT5 / RFU, WDR92 / Fold change vs veh, WDR92 / RFU, CUX1 / Fold change vs veh, CUX1 / RFU, TTC7A / Fold change vs veh, TTC7A / RFU, TMEM135 / Fold change vs veh, TMEM135 / RFU, DEPTOR / Fold change vs veh, DEPTOR / RFU, CPM / Fold change vs veh, CPM / RFU, DNAJB6 / Fold change vs veh, DNAJB6 / RFU, CACNA2D3 / Fold change vs veh, CACNA2D3 / RFU, DTX4 / Fold change vs veh, DTX4 / RFU, TFCP2 / Fold change vs veh, TFCP2 / RFU, GMCL1 /// GMCL1P1 / Fold change vs veh, GMCL1 /// GMCL1P1 / RFU, AEBP2 / Fold change vs veh, AEBP2 / RFU, SNHG1 /// SNORD22 /// SNORD25 /// SNORD26 /// SNORD27 /// SNORD28 /// SNORD29 /// SNORD31 / Fold change vs veh, SNHG1 /// SNORD22 /// SNORD25 /// SNORD26 /// SNORD27 /// SNORD28 /// SNORD29 /// SNORD31 / Fold change (Aza/veh), C12orf56 (ProbeSet 11735607_a_at) / Fold change (ACY-1035/veh), C12orf56 (ProbeSet 11735607_a_at) / Fold change (Aza/veh), FGFR1OP (ProbeSet 11751329_s_at) / Fold change (ACY-1035/veh), FGFR1OP (ProbeSet 11751329_s_at) / Fold change (Aza/veh), VPS36 (ProbeSet 11739960_a_at) / Fold change (ACY-1035/veh), VPS36 (ProbeSet 11739960_a_at) / RFU SYPL1 (11715823_x_at) / Fold change /veh SYPL1 (11715823_x_at) / RFU IGFBP7 (11715501_s_at) / Fold change /veh IGFBP7 (11715501_s_at) / RFU REEP3 (11722064_at) / Fold change /veh REEP3 (11722064_at) / RFU IGLL1 (11728026_x_at) / Fold change /veh IGLL1 (11728026_x_at): dose or concentration left out as unconfirmed. The class given is cell-based, human. Conditions: ProbeSet 11741199_a_at; LIST B.

Consider `Nc1ccc(-c2cccs2)cc1NC(=O)c1ccc2c(c1)cc(C1CC1)n2CCN1CCOCC1` [ACY-1035], for which the “RFU, LRRCC1” value is given as 56.24 RFU.
